Measured values published in patent US11649236B2, “Polycyclic carbamoylpyridone derivative” (Shionogi & Co., Ltd., priority 2018, dated 2023).

These compounds were tested on HIV (assay: Anti-HIV activity (MT-4 cells, MTT)). Conditions: Human immunodeficiency virus 1, MT4, 96 h, cultured 4 days.
Format: cell-based
Procedure: Serial dilutions of a test sample were prepared in a 96-well microplate (50 μL/well). 2.5×10^5 cells/mL of a MT-4 cell suspension was dispensed at 100 μL/well to the plate containing the test sample. Then, an HIV virus solution was dispensed at 50 μL/well. The plate was mixed with a plate mixer and cultured for 4 days in a CO2 incubator. An MTT (3-(4,5-dimethylthiazol-2-yl)-2,5-diphenyltetrazolium bromide) solution was dispensed at 30 μL/well. The plate was reacted for 1 hour in a CO2 incubator. 150 μL of the supernatant was removed from each well so as not to take up the cells. 150 μL of a cell lysis solution was added to each well and well mixed with a plate mixer until the cells were completely lysed. The absorbance of the mixed plate was measured at two wavelengths of 560 nm and 690 nm with a microplate reader.

Structure (SMILES) | EC50
CCN1C(=O)c2c(O)c(=O)c(C(=O)NCc3c(F)cc(F)cc3OC)cn2N2CCCC[C@@H]12 [II-035] | 1.3 nM
C[C@@H]1CCN2[C@@H](C1)N(C)C(=O)c1c(O)c(=O)c(C(=O)NCc3cccc(Cl)c3F)cn12 [II-036] | 3.8 nM
CCN1C(=O)c2c(O)c(=O)c(C(=O)NCc3ccc(F)cc3F)cn2N2C[C@H]3C[C@H](C3)[C@@H]12 [II-037] | 0.64 nM
CCN1C(=O)c2c(O)c(=O)c(C(=O)NCc3ccc(F)cc3F)cn2N2[C@@H](COC)CC[C@@H]12 [II-038] | 2 nM
CCN1C(=O)c2c(O)c(=O)c(C(=O)NCc3ccc(F)cc3F)cn2N2CCC(C)(C)C[C@@H]12 [II-039] | 2.9 nM
C[C@H](N1C(=O)c2c(O)c(=O)c(C(=O)NCc3ccc(F)cc3F)cn2N2CCCC[C@@H]12)C(F)(F)F [II-043] | 1.4 nM
CCN1C(=O)c2c(O)c(=O)c(C(=O)NCc3c(F)cc(F)cc3F)cn2N2CC[C@@H](C)C[C@@H]12 [II-044] | 0.84 nM
CN1C(=O)c2c(O)c(=O)c(C(=O)NCc3ccc(Cl)cc3F)cn2N2CCCC[C@@H]12 [II-045] | 2 nM
C[C@@H]1CC[C@H]2N(C)C(=O)c3c(O)c(=O)c(C(=O)NCc4cccc(Cl)c4F)cn3N12 [II-047] | 0.57 nM
CCN1C(=O)c2c(O)c(=O)c(C(=O)NCc3c(F)ccc(C#N)c3F)cn2N2CCCC[C@@H]12 [II-050] | 2.8 nM
CCN1C(=O)c2c(O)c(=O)c(C(=O)NCc3ccc(F)cc3F)cn2N2C[C@H](C)CC[C@@H]12 [II-052] | 0.62 nM
CCN1C(=O)c2c(O)c(=O)c(C(=O)NCc3c(F)cc(F)cc3F)cn2N2[C@H](C)CCC[C@@H]12 [II-053] | 1.4 nM
Cc1c(F)ccc(CNC(=O)c2cn3c(c(O)c2=O)C(=O)N(C)[C@@H]2CCCCN23)c1F [II-054] | 0.34 nM
CCN1C(=O)c2c(O)c(=O)c(C(=O)NCc3ccc(F)cc3F)cn2N2CC[C@H](COC)C[C@@H]12 [II-055] | 0.58 nM
CCN1C(=O)c2c(O)c(=O)c(C(=O)NCc3ccc(F)nc3F)cn2N2C[C@@H]3CC[C@@H](C3)[C@@H]12 [II-056] | 0.83 nM
CCN1C(=O)c2c(O)c(=O)c(C(=O)NCc3ccc(F)nc3F)cn2N2CCCC[C@@H]12 [II-057] | 1.7 nM
C[C@H]1CCN2[C@@H](C1)N(C)C(=O)c1c(O)c(=O)c(C(=O)NCc3cccc(Cl)c3F)cn12 [II-058] | 0.79 nM
CCN1C(=O)c2c(O)c(=O)c(C(=O)NCc3ccc(F)cc3F)cn2N2C[C@H](OC)CC[C@@H]12 [II-059] | 0.66 nM
C[C@H]1CCN2[C@@H](C1)N(C)C(=O)c1c(O)c(=O)c(C(=O)NCc3ccc(Cl)cc3F)cn12 [II-061] | 3.4 nM
CCN1C(=O)c2c(O)c(=O)c(C(=O)NCc3ccnc(Cl)c3F)cn2N2CCCC[C@@H]12 [II-062] | 3.2 nM
CN1C(=O)c2c(O)c(=O)c(C(=O)NCc3cccc(Cl)c3F)cn2N2Cc3ccccc3[C@@H]12 [II-063] | 3.6 nM
CC(C)N1C(=O)c2c(O)c(=O)c(C(=O)NCc3c(F)cc(F)cc3F)cn2N2CC[C@@H](C)C[C@@H]12 [II-064] | 1.2 nM
C[C@H]1C[C@H]2N(C)C(=O)c3c(O)c(=O)c(C(=O)NCc4ccc(Cl)cc4F)cn3N2C1 [II-065] | 4.9 nM
CCN1C(=O)c2c(O)c(=O)c(C(=O)NCc3ccc(F)cc3F)cn2N2CCC3(C[C@@H]12)OCCO3 [II-067] | 0.62 nM

Structure (SMILES) | EC50
CCN1C(=O)c2c(O)c(=O)c(C(=O)NCc3ccc(F)cc3F)cn2N2[C@H](C)CC[C@@H]12 [II-068] | 0.61 nM
CCN1C(=O)c2c(O)c(=O)c(C(=O)NCc3c(F)cc(F)cc3F)cn2N2CC[C@H](C)C[C@@H]12 [II-069] | 0.9 nM
CCN1C(=O)c2c(O)c(=O)c(C(=O)NCc3ccc(F)cc3F)cn2N2CC[C@H](C)[C@@H]12 [II-073] | 0.25 nM
CN1C(=O)c2c(O)c(=O)c(C(=O)NCc3ccc(F)c(F)c3F)cn2N2CCCC[C@@H]12 [II-074] | 0.71 nM
C[C@@H]1CCN2[C@@H](C1)N(C)C(=O)c1c(O)c(=O)c(C(=O)NCc3ccc(Cl)cc3F)cn12 [II-075] | 6.3 nM
CCN1C(=O)c2c(O)c(=O)c(C(=O)NCc3ncc(Cl)cc3F)cn2N2CCCC[C@@H]12 [II-076] | 3.3 nM
CCN1C(=O)c2c(O)c(=O)c(C(=O)NCc3ccc(F)cc3F)cn2N2[C@@H]3CCC[C@@H]3CC[C@@H]12 [II-078] | 1.1 nM
CCN1C(=O)c2c(O)c(=O)c(C(=O)NCc3ccc(F)cc3F)cn2N2Cc3ccc(F)cc3[C@@H]12 [II-079] | 0.66 nM
CCN1C(=O)c2c(O)c(=O)c(C(=O)NCc3c(F)ccc(F)c3F)cn2N2CCCC[C@@H]12 [II-080] | 0.58 nM
CCN1C(=O)c2c(O)c(=O)c(C(=O)NCc3ccc(F)nc3F)cn2N2CC[C@H](C)C[C@@H]12 [II-081] | 3.1 nM
CCN1C(=O)c2c(O)c(=O)c(C(=O)NCc3c(F)cccc3F)cn2N2CCCC[C@@H]12 [II-082] | 0.74 nM
CCN1C(=O)c2c(O)c(=O)c(C(=O)NCc3ccc(F)cc3F)cn2N2C[C@@H]3C[C@@H]3[C@@H]12 [II-083] | 0.95 nM
CCN1C(=O)c2c(O)c(=O)c(C(=O)NCc3ccc(F)cc3F)cn2N2Cc3ccc(Cl)cc3[C@@H]12 [II-084] | 1.8 nM
CCN1C(=O)c2c(O)c(=O)c(C(=O)NCc3ccc(F)cc3F)cn2N2CCC(C)(C)[C@@H]12 [II-085] | 1.3 nM
C[C@@H]1CCN2[C@@H](C1)N(C)C(=O)c1c(O)c(=O)c(C(=O)NCc3ccc(F)cc3F)cn12 [II-086] | 1 nM
CCN1C(=O)c2c(O)c(=O)c(C(=O)NCc3ccc(F)cc3F)cn2N2CCN(CCOC)C[C@@H]12 [II-088] | 3.1 nM
CC[C@@H]1CC[C@H]2N(CC)C(=O)c3c(O)c(=O)c(C(=O)NCc4ccc(F)cc4F)cn3N12 [II-089] | 0.94 nM
C[C@@H]1CCC[C@H]2N(C)C(=O)c3c(O)c(=O)c(C(=O)NCc4ccc(Cl)cc4F)cn3N12 [II-091] | 4.1 nM
CCN1C(=O)c2c(O)c(=O)c(C(=O)NCc3ccccc3F)cn2N2CCCC[C@@H]12 [II-092] | 0.33 nM
C[C@@H]1CCC[C@H]2N(C)C(=O)c3c(O)c(=O)c(C(=O)NCc4c(F)cc(F)cc4F)cn3N12 [II-094] | 0.57 nM
CCN1C(=O)c2c(O)c(=O)c(C(=O)NCc3ncc(F)cc3Cl)cn2N2CCCC[C@@H]12 [II-095] | 1.9 nM
CCN1C(=O)c2c(O)c(=O)c(C(=O)NCc3ccc(F)cc3F)cn2N2CCOCC[C@@H]12 [II-096] | 0.68 nM
CCN1C(=O)c2c(O)c(=O)c(C(=O)NCc3c(F)cc(F)cc3F)cn2N2Cc3ccccc3[C@@H]12 [II-097] | 1 nM
CCN1C(=O)c2c(O)c(=O)c(-c3nnc(Cc4ncc(Cl)cc4F)s3)cn2N2CCCC[C@@H]12 [II-098] | 4 nM

Structure (SMILES) | EC50
CCN1C(=O)c2c(O)c(=O)c(C(=O)NCc3ccc(F)cc3F)cn2N2CCN(Cc3ccccc3)C[C@@H]12 [II-100] | 3 nM
CCN1C(=O)c2c(O)c(=O)c(C(=O)NCc3ccc(F)cc3F)cn2N2CCN(CC3CC3)C[C@@H]12 [II-101] | 1.6 nM
CN1C(=O)c2c(O)c(=O)c(C(=O)NCc3ccnc(Cl)c3F)cn2N2CCCC[C@@H]12 [II-103] | 3.7 nM
CCN1C(=O)c2c(O)c(=O)c(C(=O)NCc3ccc(F)cc3F)cn2N2CCCOC[C@@H]12 [II-107] | 2.3 nM
CCN1C(=O)c2c(O)c(=O)c(C(=O)NCc3ccc(F)cc3F)cn2N2CC=C[C@@H]12 [II-109] | 2.4 nM
CCN1C(=O)c2c(O)c(=O)c(C(=O)NCc3ccc(F)cc3F)cn2N2CCN(C(=O)NC)C[C@@H]12 [II-110] | 2.1 nM
C[C@H]1CCN2[C@@H](C1)N(C)C(=O)c1c(O)c(=O)c(C(=O)NCc3ccc(F)cc3F)cn12 [II-113] | 0.72 nM
CCN1C(=O)c2c(O)c(=O)c(C(=O)NCc3ccc(F)cc3F)cn2N2CC[C@H](C(F)(F)F)C[C@@H]12 [II-114] | 1.5 nM
CN1C(=O)c2c(O)c(=O)c(C(=O)NCc3c(F)cc(F)cc3F)cn2N2C[C@@H]3CC[C@@H](O3)[C@@H]12 [II-115] | 0.87 nM
CN1C(=O)c2c(O)c(=O)c(C(=O)NCc3ccc(F)cc3F)cn2N2Cc3ccccc3[C@@H]12 [II-116] | 0.68 nM
C[C@H]1CC[C@H]2N(C)C(=O)c3c(O)c(=O)c(C(=O)NCc4ccc(F)cc4F)cn3N2C1 [II-117] | 2 nM
CCN1C(=O)c2c(O)c(=O)c(C(=O)NCc3ccc(F)cc3F)cn2N2C3CCC(CC3)[C@@H]12 [II-118] | 2.2 nM
COC[C@@H]1CC[C@H]2N(C)C(=O)c3c(O)c(=O)c(C(=O)NCc4ccc(F)cc4F)cn3N12 [II-119] | 0.54 nM
CN1C(=O)c2c(O)c(=O)c(C(=O)NCc3c(F)cc(F)cc3F)cn2N2Cc3ccccc3[C@@H]12 [II-120] | 0.22 nM
C[C@H]1C[C@H]2N(C)C(=O)c3c(O)c(=O)c(C(=O)NCc4ccc(F)cc4F)cn3N2C1 [II-121] | 0.71 nM
CN1C(=O)c2c(O)c(=O)c(C(=O)NCc3ccc(F)cc3F)cn2N2C[C@@H]3CC[C@@H](C3)[C@@H]12 [II-122] | 0.61 nM
CCN1C(=O)c2c(O)c(=O)c(C(=O)NCc3ccc(F)cc3F)cn2N2C[C@H](C)C[C@@H]12 [II-123] | 1.6 nM
CCN1C(=O)c2c(O)c(=O)c(C(=O)NCc3ccc(F)cc3F)cn2N2Cc3cc(Cl)ccc3[C@@H]12 [II-124] | 2.6 nM
CCN1C(=O)c2c(O)c(=O)c(C(=O)NCc3ccc(F)cc3F)cn2N2CCN(C(=O)OC)C[C@@H]12 [II-125] | 1.3 nM
CCN1C(=O)c2c(O)c(=O)c(C(=O)NCc3ccc(F)cc3F)cn2N2C[C@@H](OC)CC[C@@H]12 [II-126] | 0.45 nM
CCN1C(=O)c2c(O)c(=O)c(C(=O)NCc3ccccc3OC(F)F)cn2N2CCCC[C@@H]12 [II-127] | 3.6 nM
CCN1C(=O)c2c(O)c(=O)c(C(=O)NCc3ccc(F)cc3F)cn2N2Cc3cc(F)ccc3[C@@H]12 [II-128] | 0.72 nM
CCN1C(=O)c2c(O)c(=O)c(C(=O)NCc3ccccc3OC)cn2N2CCCC[C@@H]12 [II-129] | 1.9 nM
